# Measurements published in patent US9469653B2, “Pharmaceutical compositions for preventing or treating degenerative brain disease and method of screening the same” (KOREA INSTITUTE OF SCIENCE AND TECHNOLOGY, priority 2011, dated 2016).
# Tests used:
# [1] = target: T1, human MAO-B enzyme (Homo sapiens (Human), UniProt P27338); assay: Screening of MAO-B activity inhibition (Amplex Red monoamine oxidase assay kit, benzylamine substrate); format: biochemical; settings: 10 uM of the synthesized compound, pargyline-corrected
# T1 sequence (P27338 whole entry): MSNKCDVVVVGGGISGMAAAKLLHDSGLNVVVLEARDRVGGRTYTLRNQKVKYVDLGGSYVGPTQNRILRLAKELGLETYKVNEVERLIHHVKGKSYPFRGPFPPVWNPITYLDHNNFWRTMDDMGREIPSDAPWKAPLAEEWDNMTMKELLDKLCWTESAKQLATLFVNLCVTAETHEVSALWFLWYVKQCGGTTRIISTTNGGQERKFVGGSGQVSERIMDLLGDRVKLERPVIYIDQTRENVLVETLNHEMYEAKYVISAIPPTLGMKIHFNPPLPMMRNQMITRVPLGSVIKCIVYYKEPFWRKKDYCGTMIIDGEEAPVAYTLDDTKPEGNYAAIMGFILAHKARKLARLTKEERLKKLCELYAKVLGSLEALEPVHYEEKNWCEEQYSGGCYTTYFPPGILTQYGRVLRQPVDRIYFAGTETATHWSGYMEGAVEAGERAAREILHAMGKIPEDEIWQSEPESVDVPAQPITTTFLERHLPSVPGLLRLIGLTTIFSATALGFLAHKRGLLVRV
# Description: A stock solution was prepared using a human MAO-B enzyme (purchased from Aldrich) and a Amplex® Red monoamine oxidase assay kit according to a preparation manual. The kit includes a 5× reaction buffer, an Amplex® red reagent (1 mg), HRP, DMSO, H2O2, p-tyramine (substrate of MAO-A, B), benzylamine (substrate of MAO-B), clorgiline (inhibitor of MAO-A), and pargyline (inhibitor of MAO-B). Among these reagents in the kit, benzylamine was used as a substrate for MAO-B, and pargyline was used as an MAO-B inhibitor. A solution as overall substrates was prepared as follows. 200 ul of a solution of 1 mg of Amplex® red sufficiently dissolved in 200 ul of DMSO, 100 ul of a mixed solution of HRP and 1 ml of a 1× buffer, 200 ul of a solution of benzylamine dissolved in 1.2 ml of dH2O were added to 9.5 ml of a 1× buffer to reach a total volume of 10 mL, which is sufficient for 100 wells. 0.5 ul of a mixture of MAO-B inhibitor pargyline and 1 ml of dH2O was put into each well. First, the activity of MAO-B was determined using 10 uM of the synthesized compound.
# 96 wells were injected with positive and negative types, and the wile type. The positive type included only substrate and hydrogen peroxide, and the negative type included only substrate. For the wild type, corresponding wells were injected with the enzyme, substrate, and MAO-B inhibitor, but with no synthesized compound. Afterward, 2 ul of the synthesized compound (1 mM) was added into each well, and the human MAO-B enzyme was put only into the 1st row of wells. 0.5 ug of the human MAO-B was put into each well along with 100 ul of a 1× buffer. The human MAO-B enzyme was put into the 2nd row of the wells along with 0.5 ul of a pargyline, the MAO-B inhibitor. To reduce an experimental error for accuracy, the test was repeated three times for each compound. After 30 minutes, 100 ul of the substrate solution was added into each well in a darkroom. The test was performed in the darkroom due to light sensitivity of the Amplex® reagent. Finally, a total volume of the reaction solution per well reached 200 ul. After about 2 to 3 hours, chromophoric degrees of the samples were measured. A variation in data values for the 1st and 2nd rows of the wells indicates the pure reaction activity of the MAO-B enzyme with the substrate. Using the samples with the synthesized compound the remaining activity of MAO-B after inhibited by the synthesized compound may be determined. This is because the activities of the other enzymes excluding the MAO-B enzyme may be excluded through this method. Compounds with high inhibitory activity at a concentration of 10 uM were screened from among the synthesized compounds at a compound concentration of 10 uM.
# [2] = target: T1, human MAO-B enzyme; assay: as above; format: biochemical; settings: activity assay at 0.001, 0.01, 0.1, 1 and 10 uM
Remaining activity of MAO-B (%) [1],IC50 [2],SMILES
101.2%,–,"CN(Cc1ccccc1)c1ccc2nc(-c3ccc([N+](=O)[O-])cc3)oc2n1 [Example 5-71, N-benzyl-N-methyl-2-(4-nitrophenyl)oxazolo[5,4-b]pyridine-5-amine]"
17%,–,"Clc1cccc(-c2nc3ccc(N4CCCCC4)nc3o2)c1 [Example 5-41, 2-chlorophenyl-5-(piperidine-1-yl)oxazolo[5,4-b]pyridine]"
4.14%,3.02 µM,"CNc1ccc2nc(-c3ccc(Cl)cc3)oc2n1 [Example 5-77, 2-(4-chlorophenyl)-N-methyloxazolo[5,4-b]pyridine-5-amine]"
46.4%,–,"Clc1ccc(-c2nc3ccc(NCc4ccccc4)nc3o2)cc1 [Example 5-61, N-benzyl-2-(4-chlorophenyl)oxazolo[5,4-b]pyridine-5-amine]"
33.5%,–,Brc1ccc(-c2nc3ccc(N4CCCC4)nc3o2)cc1 [Example 5-36]
28.6%,0.096 µM,"Brc1ccc(-c2nc3ccc(N4CCCCC4)nc3o2)cc1 [Example 5-47, 2-(4-bromophenyl)-5-(piperidine-1-yl)oxazolo[5,4-b]pyridine]"
108.8%,–,CN(Cc1ccccc1)c1ccc2nc(-c3ccc(C#N)cc3)oc2n1 [Example 5-72]
3.09%,2 µM,"c1ccc(-c2nc3ccc(N4CCCCC4)nc3o2)cc1 [Example 5-37, 2-phenyl-5-(piperidine-1-yl)oxazolo[5,4-b]pyridine]"
55.4%,–,"Clc1cccc(-c2nc3ccc(NCc4ccccc4)nc3o2)c1 [Example 5-60, N-benzyl-2-(3-chlorophenyl)oxazolo[5,4-b]pyridine-5-amine]"
−7.8%,–,"Cc1cccc(-c2nc3ccc(N4CCCCC4)nc3o2)c1 [Example 5-42, 5-(piperidine-1-yl)-2-m-tolyloxazolo[5,4-b]pyridine]"
43%,–,"c1ccc(-c2nc3ccc(NC4CCCCC4)nc3s2)cc1 [Example 5-52, N-cyclohexyl-2-phenylthiazolo[5,4-b]pyridine-5-amine]"
53.2%,–,"CN(Cc1ccccc1)c1ccc2nc(-c3ccccc3)oc2n1 [Example 5-63, N-benzyl-N-methyl-2-phenyloxazolo[5,4-b]pyridine-5-amine]"
−21.5%,–,O=[N+]([O-])c1cccc(-c2nc3ccc(N4CCCCC4)nc3o2)c1 [Example 5-43]
22%,9.86 µM,"CNc1ccc2nc(-c3cccc(F)c3)oc2n1 [Example 5-75, 2-(3-fluorophenyl)-N-methyloxazolo[5,4-b]pyridine-5-amine]"
60.8%,1900 µM,"c1ccc(CNc2ccc3nc(-c4ccccc4)sc3n2)cc1 [Example 5-58, N-benzyl-2-phenylthiazolo[5,4-b]pyridine-5-amine]"
57.5%,–,"c1ccc(-c2nc3ccc(N4CCCCCC4)nc3o2)cc1 [Example 5-54, 5-(azepane-1-yl)-2-phenyloxazolo[5,4-b]pyridine]"
42.7%,–,"c1ccc(-c2nc3ccc(NCCN4CCOCC4)nc3s2)cc1 [Example 5-62, N-(2-morpholinoethyl)-2-phenylthiazolo[5,4-b]pyridine-5-amine]"
84.1%,–,"CN(Cc1ccccc1)c1ccc2nc(-c3ccccc3Cl)oc2n1 [Example 5-65, N-benzyl-2-(2-chlorophenyl)-N-methyloxazolo[5,4-b]pyridine-5-amine]"
47.3%,68.2 µM,"CN(Cc1ccccc1)c1ccc2nc(-c3cccc(Cl)c3)oc2n1 [Example 5-67, N-benzyl-2-(3-chlorophenyl)-N-methyloxazolo[5,4-b]pyridine-5-amine]"
0.6%,13.2 µM,"Clc1ccccc1-c1nc2ccc(N3CCCCC3)nc2o1 [Example 5-39, 2-chlorophenyl-5-(piperidine-1-yl)oxazolo[5,4-b]pyridine]"
84.1%,–,"Cc1ccc(-c2nc3ccc(N(C)Cc4ccccc4)nc3o2)cc1 [Example 5-69, N-benzyl-N-methyl-2-p-tolyloxazolo[5,4-b]pyridine-5-amine]"

Remaining activity of MAO-B (%) [1],IC50 [2],SMILES
7.7%,112 µM,"Clc1ccccc1-c1nc2ccc(N3CCCC3)nc2o1 [Example 5-32, 2-chlorophenyl-5-(pyrrolidine-1-yl)oxazolo[5,4-b]pyridine]"
43%,–,"CN(Cc1ccccc1)c1ccc2nc(-c3cccc(F)c3)oc2n1 [Example 5-66, N-benzyl-2-(3-fluorophenyl)-N-methyloxazolo[5,4-b]pyridine-5-amine]"
39.3%,–,"Clc1cccc(-c2nc3ccc(NC4CCCCC4)nc3o2)c1 [Example 5-53, 2-(3-chlorophenyl)-N-cyclohexyloxazolo[5,4-b]pyridine-5-amine]"
61.4%,–,"Fc1ccc(-c2nc3ccc(N4CCCCCC4)nc3o2)cc1 [Example 5-56, 5-(azepane-1-yl)-2-(4-fluorophenyl)oxazolo[5,4-b]pyridine]"
−1.8%,–,"c1ccc(-c2nc3ccc(N4CCCCCC4)nc3s2)cc1 [Example 5-55, 5-(azepane-1-yl)-2-phenylthiazolo[5,4-b]pyridine]"
84.5%,–,"CNc1ccc2nc(-c3ccc(OC)cc3)oc2n1 [Example 5-79, 2-(4-methoxyphenyl)-N-methyloxazolo[5,4-b]pyridine-5-amine]"
14.2%,–,"Clc1cccc(-c2nc3ccc(N4CCCC4)nc3o2)c1 [Example 5-33, 2-chlorophenyl-5-(pyrrolidine-1-yl)oxazolo[5,4-b]pyridine]"
71.2%,–,"N#Cc1ccc(-c2nc3ccc(N4CCCCC4)nc3o2)cc1 [Example 5-50, 4-(5-(piperidine-1-yl)oxazolo[5,4-b]pyridine-2-yl)benzonitrile]"
37.2%,–,"Clc1cccc(-c2nc3ccc(NC4CCCC4)nc3o2)c1 [Example 5-51, 2-(3-chlorophenyl)-N-cyclopentyloxazolo[5,4-b]pyridine-5-amine]"
51%,–,"CNc1ccc2nc(-c3ccccc3)oc2n1 [Example 5-73, N-methyl-2-phenyloxazolo[5,4-b]pyridine-5-amine]"
51.9%,–,"Fc1cccc(-c2nc3ccc(NCc4ccccc4)nc3o2)c1 [Example 5-59, N-benzyl-2-(3-fluorophenyl)oxazolo[5,4-b]pyridine-5-amine]"
42.4%,–,"Clc1ccc(-c2nc3ccc(N4CCCC4)nc3o2)cc1 [Example 5-35, 2-chlorophenyl-5-(pyrrolidine-1-yl)oxazolo[5,4-b]pyridine]"
63.1%,–,"c1ccc(CNc2ccc3nc(-c4ccccc4)oc3n2)cc1 [Example 5-57, N-benzyl-2-phenyloxazolo[5,4-b]pyridine-5-amine]"
11.1%,–,"c1ccc(-c2nc3ccc(NC4CCCCC4)nc3o2)cc1 [Example 5-80, N-cyclohexyl-2-phenyloxazolo[5,6-b]pyridine-5-amine]"
46.2%,–,"Cc1ccc(-c2nc3ccc(N4CCCCC4)nc3o2)cc1 [Example 5-48, 5-(piperidine-1-yl)-2-p-tolyloxazolo[5,4-b]pyridine]"
56.0%,–,Clc1ccc(-c2nc3ccc(N4CCCCC4)nc3o2)cc1 [Example 5-46]
47.8%,–,"CN(Cc1ccccc1)c1ccc2nc(-c3ccccc3)sc2n1 [Example 5-64, N-benzyl-N-methyl-2-phenylthiazole[5,4-b]pyridine-5-amine]"
45.8%,–,"CNc1ccc2nc(-c3ccc(C)cc3)oc2n1 [Example 5-78, N-methyl-2-p-tolyloxazolo[5,4-b]pyridine-5-amine]"
10.1%,–,"N#Cc1cccc(-c2nc3ccc(N4CCCCC4)nc3o2)c1 [Example 5-44, 3-(5-(piperidine-1-yl)oxazolo[5,4-b]pyridine-2-yl)benzonitrile]"
52.4%,–,"COc1ccc(-c2nc3ccc(N(C)Cc4ccccc4)nc3o2)cc1 [Example 5-70, N-benzyl-2-(4-methoxyphenyl)-N-methyloxazolo[5,4-b]pyridine-5-amine]"
